Source: paper PMC13539321 (Journal of Advanced Research, 2025)

Target: Mushroom TYR (EC 1.14.18.1) (Agaricus bisporus, UniProt C7FF04)
Assay: biochemical
Conditions: IC50 value ± SD
[1] = L-dopa, substrate L-dopa (diphenolase), n = 3, screening of de novo generated compounds (Table 1)
[2] = L-tyrosine, substrate L-tyrosine (monophenolase), n = 3, screening of de novo generated compounds (Table 1)

Sequence of Mushroom TYR (EC 1.14.18.1) (C7FF04 1-392 limits assumed): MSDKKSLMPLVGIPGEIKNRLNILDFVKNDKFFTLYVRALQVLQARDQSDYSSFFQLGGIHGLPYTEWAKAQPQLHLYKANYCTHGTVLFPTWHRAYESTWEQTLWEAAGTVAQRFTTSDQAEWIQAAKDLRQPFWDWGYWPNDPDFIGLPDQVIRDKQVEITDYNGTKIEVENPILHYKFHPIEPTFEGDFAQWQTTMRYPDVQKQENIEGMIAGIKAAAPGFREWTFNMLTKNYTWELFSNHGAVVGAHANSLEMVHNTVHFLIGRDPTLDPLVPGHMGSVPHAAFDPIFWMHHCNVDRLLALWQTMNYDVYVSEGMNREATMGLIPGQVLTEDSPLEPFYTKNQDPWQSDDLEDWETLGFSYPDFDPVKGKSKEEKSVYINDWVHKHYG

| IC50 [1] | IC50 [2] | IC50 (L-dopa) | IC50 (L-tyrosine) | SMILES |
| --- | --- | --- | --- | --- |
| > 800 µM | > 800 µM | – | – | COc1cc(C(=O)N[C@@H](Cc2ccccc2)C(N)=O)ccc1O [Compound I, (S)-N-(1-amino-1-oxo-3-phenylpropan-2-yl)-4-hydroxy-3-methoxybenzamide] |
| – | – | > 800 µM | 204 ± 3.9 µM | O=C(CCc1cccc(O)c1)N1CCN(Cc2ccccc2F)CC1 [Compound V-1, 1-(4-(2-fluorobenzyl)piperazin-1-yl)-3-(3-hydroxyphenyl)propan-1-one] |
| – | – | > 400 µM | 295 ± 24.2 µM | O=C(CCc1cccc(O)c1)N1CCN(Cc2cccc(F)c2)CC1 [Compound V-2, 1-(4-(3-fluorobenzyl)piperazin-1-yl)-3-(3-hydroxyphenyl)propan-1-one] |
| – | – | 66.1 ± 4.6 µM | 60.6 ± 4.5 µM | O=C(CCc1ccccc1O)N1CCN(Cc2ccc(F)cc2)CC1 [Compound V-3, 1-(4-(4-fluorobenzyl)piperazin-1-yl)-3-(2-hydroxyphenyl)propan-1-one] |
| – | – | 26.1 ± 4.6 µM | 2.9 ± 0.1 µM | O=C(CCc1ccc(O)cc1)N1CCN(Cc2ccc(F)cc2)CC1 [Compound V-4, 1-(4-(4-fluorobenzyl)piperazin-1-yl)-3-(4-hydroxyphenyl)propan-1-one] |
| – | – | > 200 µM | 148 ± 25.4 µM | O=C(/C=C/c1cccc(O)c1)N1CCN(Cc2ccc(F)cc2)CC1 [Compound V-5, (E)-1-(4-(4-fluorobenzyl)piperazin-1-yl)-3-(3-hydroxyphenyl)prop-2-en-1-one] |
| – | – | 296 ± 7.9 µM | 88.9 ± 2.9 µM | O=C(CCc1cccc(O)c1)N1CCCN(Cc2ccc(F)cc2)CC1 [Compound V-6, 1-(4-(4-fluorobenzyl)-1,4-diazepan-1-yl)-3-(3-hydroxyphenyl)propan-1-one] |
| – | – | 119 ± 5.2 µM | 25.8 ± 1.1 µM | O=C(CCc1cccc(O)c1)N1CC2CN(Cc3ccc(F)cc3)CC2C1 (stereo not drawn) [Compound V-7, 1-(5-(4-fluorobenzyl)hexahydropyrrolo[3,4-c]pyrrol-2(1H)-yl)-3-(3-hydroxyphenyl)propan-1-one] |
| – | – | > 800 µM | 298 ± 16.6 µM | O=C(CCc1cccc(O)c1)NCCNCc1ccc(F)cc1 [Compound V-8, N-(2-((4-fluorobenzyl)amino)ethyl)-3-(3-hydroxyphenyl)propanamide] |
| – | – | > 800 µM | 328 ± 4.9 µM | O=C(CCc1cccc(O)c1)NCCCNCc1ccc(F)cc1 [Compound V-9, N-(3-((4-fluorobenzyl)amino)propyl)-3-(3-hydroxyphenyl)propanamide] |
| – | – | 19 ± 2.2 µM | 7.4 ± 0.4 µM | O=C(CCc1cccc(O)c1)N1CCN(Cc2cccc(Cl)c2)CC1 [Compound V-10, 1-(4-(3-chlorobenzyl)piperazin-1-yl)-3-(3-hydroxyphenyl)propan-1-one] |
| – | – | > 400 µM | 20.1 ± 0.7 µM | Cc1ccc(CN2CCN(C(=O)CCc3cccc(O)c3)CC2)cc1 [Compound V-11, 3-(3-hydroxyphenyl)-1-(4-(4-methylbenzyl)piperazin-1-yl)propan-1-one] |
| – | – | > 800 µM | > 800 µM | CCc1ccc(CN2CCN(C(=O)CCc3cccc(O)c3)CC2)cc1 [Compound V-12, 1-(4-(4-ethylbenzyl)piperazin-1-yl)-3-(3-hydroxyphenyl)propan-1-one] |
| – | – | 103 ± 5.6 µM | 132 ± 5.4 µM | COc1ccc(CN2CCN(C(=O)CCc3cccc(O)c3)CC2)cc1 [Compound V-13, 3-(3-hydroxyphenyl)-1-(4-(4-methoxybenzyl)piperazin-1-yl)propan-1-one] |
| – | – | 72.6 ± 3.1 µM | 83.2 ± 3.2 µM | N#Cc1ccc(CN2CCN(C(=O)CCc3cccc(O)c3)CC2)cc1 [Compound V-14, 4-((4-(3-(3-hydroxyphenyl)propanoyl)piperazin-1-yl)methyl)benzonitrile] |
| – | – | 140 ± 15.6 µM | 41.8 ± 3.2 µM | O=C(CCc1cccc(O)c1)N1CCN(C/C=C/c2ccc(F)cc2)CC1 [Compound V-15, (E)-1-(4-(3-(4-fluorophenyl)allyl)piperazin-1-yl)-3-(3-hydroxyphenyl)propan-1-one] |
| – | – | > 800 µM | > 300 µM | O=C(CCc1cccc(O)c1)N1CCN(CCc2ccccc2)CC1 [Compound V-16, 3-(3-hydroxyphenyl)-1-(4-phenethylpiperazin-1-yl)propan-1-one] |
| – | – | > 800 µM | > 600 µM | O=C(CCc1cccc(O)c1)N1CCN(Cc2ccco2)CC1 [Compound V-17, 1-(4-(furan-2-ylmethyl)piperazin-1-yl)-3-(3-hydroxyphenyl)propan-1-one] |
| – | – | > 800 µM | > 300 µM | O=C(CCc1cccc(O)c1)N1CCN(Cc2cccs2)CC1 [Compound V-18, 3-(3-hydroxyphenyl)-1-(4-(thiophen-2-ylmethyl)piperazin-1-yl)propan-1-one] |
| – | – | > 800 µM | > 600 µM | O=C(CCc1cccc(O)c1)N1CCN(Cc2ccccn2)CC1 [Compound V-19, 3-(3-hydroxyphenyl)-1-(4-(pyridin-2-ylmethyl)piperazin-1-yl)propan-1-one] |
| – | – | 21.3 ± 0.8 µM | 9.1 ± 0.6 µM | O=C(CCc1cc(O)cc(O)c1)N1CCN(Cc2ccc(F)cc2)CC1 [Compound V-20, 3-(3,5-dihydroxyphenyl)-1-(4-(4-fluorobenzyl)piperazin-1-yl)propan-1-one] |

| IC50 [1] | IC50 [2] | IC50 (L-dopa) | IC50 (L-tyrosine) | SMILES |
| --- | --- | --- | --- | --- |
| – | – | 21 ± 0.82 µM | 8.2 ± 0.4 µM | O=C(CCc1cc(O)ccc1O)N1CCN(Cc2ccc(F)cc2)CC1 [Compound V-21, 3-(2,5-dihydroxyphenyl)-1-(4-(4-fluorobenzyl)piperazin-1-yl)propan-1-one] |
| – | – | 0.085 ± 0.016 µM | 0.122 ± 0.008 µM | O=C(/C=C/c1ccc(O)cc1O)N1CCN(Cc2ccc(F)cc2)CC1 [Compound V-22, (E)-3-(2,4-dihydroxyphenyl)-1-(4-(4-fluorobenzyl)piperazin-1-yl)prop-2-en-1-one] |
| – | – | 0.134 ± 0.008 µM | 0.183 ± 0.013 µM | Cc1ccc(CN2CCN(C(=O)CCc3ccc(O)cc3O)CC2)cc1 [Compound V-23, 3-(2,4-dihydroxyphenyl)-1-(4-(4-methylbenzyl)piperazin-1-yl)propan-1-one] |
| – | – | 0.147 ± 0.013 µM | 0.165 ± 0.008 µM | COc1ccc(CN2CCN(C(=O)CCc3ccc(O)cc3O)CC2)cc1 [Compound V-25, 3-(2,4-dihydroxyphenyl)-1-(4-(4-methoxybenzyl)piperazin-1-yl)propan-1-one] |
| – | – | 0.02 ± 0.002 µM | 0.023 ± 0.002 µM | COc1ccc(CN2CCN(C(=O)/C=C/c3ccc(O)cc3O)CC2)cc1 [Compound V-26, (E)-3-(2,4-dihydroxyphenyl)-1-(4-(4-methoxybenzyl)piperazin-1-yl)prop-2-en-1-one] |
| – | – | 0.596 ± 0.026 µM | 0.497 ± 0.07 µM | CCOc1ccc(CN2CCN(C(=O)CCc3ccc(O)cc3O)CC2)cc1 [Compound V-27, 3-(2,4-dihydroxyphenyl)-1-(4-(4-ethoxybenzyl)piperazin-1-yl)propan-1-one] |
| – | – | 0.019 ± 0.0002 µM | 0.021 ± 0.001 µM | CCOc1ccc(CN2CCN(C(=O)/C=C/c3ccc(O)cc3O)CC2)cc1 [Compound V-28, (E)-3-(2,4-dihydroxyphenyl)-1-(4-(4-ethoxybenzyl)piperazin-1-yl)prop-2-en-1-one] |
| – | – | 0.189 ± 0.005 µM | 0.216 ± 0.019 µM | O=C(CCc1ccc(O)cc1O)N1CCN(Cc2cccc(Cl)c2)CC1 [Compound V-29, 1-(4-(3-chlorobenzyl)piperazin-1-yl)-3-(2,4-dihydroxyphenyl)propan-1-one] |
| – | – | 0.022 ± 0.001 µM | 0.021 ± 0.0003 µM | O=C(/C=C/c1ccc(O)cc1O)N1CCN(Cc2cccc(Cl)c2)CC1 [Compound V-30, (E)-1-(4-(3-chlorobenzyl)piperazin-1-yl)-3-(2,4-dihydroxyphenyl)prop-2-en-1-one] |
| – | – | 0.153 ± 0.011 µM | 0.187 ± 0.003 µM | O=C(CCc1ccc(O)cc1O)N1CCN(Cc2ccc(Cl)cc2)CC1 [Compound V-31, 1-(4-(4-chlorobenzyl)piperazin-1-yl)-3-(2,4-dihydroxyphenyl)propan-1-one] |
| – | – | 0.021 ± 0.002 µM | 0.024 ± 0.002 µM | O=C(/C=C/c1ccc(O)cc1O)N1CCN(Cc2ccc(Cl)cc2)CC1 [Compound V-32, (E)-1-(4-(4-chlorobenzyl)piperazin-1-yl)-3-(2,4-dihydroxyphenyl)prop-2-en-1-one] |
| – | – | 0.237 ± 0.011 µM | 0.299 ± 0.007 µM | N#Cc1ccc(CN2CCN(C(=O)CCc3ccc(O)cc3O)CC2)cc1 [Compound V-33, 4-((4-(3-(2,4-dihydroxyphenyl)propanoyl)piperazin-1-yl)methyl)benzonitrile] |
| – | – | 0.032 ± 0.004 µM | 0.041 ± 0.005 µM | N#Cc1ccc(CN2CCN(C(=O)/C=C/c3ccc(O)cc3O)CC2)cc1 [Compound V-34, (E)-4-((4-(3-(2,4-dihydroxyphenyl)acryloyl)piperazin-1-yl)methyl)benzonitrile] |
| > 800 µM | 423 ± 38.3 µM | – | – | NC(=O)[C@H](Cc1ccccc1)NC(=O)CCc1cccc(O)c1 [II, (S)-N-(1-amino-1-oxo-3-phenylpropan-2-yl)-3-(3-hydroxyphenyl)propanamide] |
| > 800 µM | > 800 µM | – | – | NC(=O)[C@H](Cc1ccccc1)NC(=O)c1cccc(O)c1 [III, (S)-N-(1-amino-1-oxo-3-phenylpropan-2-yl)-3-hydroxybenzamide] |
| > 800 µM | 198 ± 7.6 µM | – | – | O=C(CCc1cccc(O)c1)NC1CCN(Cc2ccccc2)CC1 [IV, N-(1-benzylpiperidin-4-yl)-3-(3-hydroxyphenyl)propanamide] |
| > 800 µM | > 800 µM | – | – | O=C(O)c1ccc(CN2CCC(C(=O)c3ccccc3)CC2)cc1 [IX, 4-((4-benzoylpiperidin-1-yl)methyl)benzoic acid] |
| > 800 µM | > 800 µM | – | – | O=C(NCc1ccc(F)cc1)c1cc(O)nc2ccccc12 [VI, N-(4-fluorobenzyl)-2-hydroxyquinoline-4-carboxamide] |
| > 800 µM | > 800 µM | – | – | COc1cccc(/C=C/C(=O)Nc2n[nH]c3ccccc23)c1 [VII, (E)-N-(1H-indazol-3-yl)-3-(3-methoxyphenyl)acrylamide] |
| > 800 µM | > 800 µM | – | – | O=C(NCCc1cccc(O)c1)c1cccc2ncccc12 [VIII, N-(3-hydroxyphenethyl)quinoline-5-carboxamide] |
| 462 ± 50.4 µM | 60.9 ± 1.9 µM | – | – | Cc1ccccc1CNC(=O)CCc1cccc(O)c1 [X, 3-(3-hydroxyphenyl)-N-(2-methylbenzyl)propanamide] |
